Reference: patent publication USRE48335E1, “Polymyxin derivatives as antimicrobial compounds” (priority 2014, dated 2020)
Values after ≈ are worked out from the molar mass of the structure shown. Positions of bridges follow the written chain, without caps; N, C: chain ends. Non-standard residues stand in square brackets, D forms with d. Residues, ends and D or L forms follow the SMILES beside them. *: point of attachment. Tle = CC(C)(C)[C@H](N)C(=O)O; Nonanoyl = CCCCCCCCC(=O)*; dNva = CCC[C@@H](N)C(=O)O; Heptanoyl = CCCCCCC(=O)*; Octanoyl = CCCCCCCC(=O)*; Orn = NCCC[C@H](N)C(=O)O; Dab = NCC[C@H](N)C(=O)O; Dap = NC[C@H](N)C(=O)O; Aib = CC(C)(N)C(=O)O

Key:
Acinetobacter baumannii = tested on: Acinetobacter baumannii
Protocol: (§1) MICs of the lipopeptides (trifluoroacetic acid salt, TFA) were determined by broth microdilution in cation-adjusted Mueller-Hinton broth (CAMHB) (Oxoid Australia, Thebarton, SA, Australia) according to Clinical and Laboratory Standards Institute standards (Clinical and Laboratory Standards Institute. Performance standards for antimicrobial susceptibility testing; eighteenth informational supplement M100-S18. Wayne, Pa., 2008). Polymyxin B (sulphate) was employed as control. […]

Enterobacter cloacae = tested on: Enterobacter cloacae
Protocol: as §1

Pseudomonas aeruginosa = tested on: Pseudomonas aeruginosa
Protocol: as §1

Structure (SMILES) | Minimum inhibitory concentration, Ab A ATCC 17978 (Acinetobacter baumannii) [µg/mL] | Minimum inhibitory concentration, Ab ATCC 19606 (Acinetobacter baumannii) [µg/mL] | Minimum inhibitory concentration, Ab FADDI-AB034 (Acinetobacter baumannii) [µg/mL] | Minimum inhibitory concentration, Ec FADDI-EC001 (Enterobacter cloacae) [µg/mL] | Minimum inhibitory concentration, Ec FADDI-EC003 (Enterobacter cloacae) [µg/mL] | Minimum inhibitory concentration, Ec FADDI-EC006 (Enterobacter cloacae) [µg/mL] | Minimum inhibitory concentration, Pa ATCC 27853 (Pseudomonas aeruginosa) [µg/mL] | Minimum inhibitory concentration, Pa FADDI-PA022 (Pseudomonas aeruginosa) [µg/mL] | Minimum inhibitory concentration, Pa FADDI-PA025 (Pseudomonas aeruginosa) [µg/mL]
CCCCCCC(=O)N[C@@H](CCN)C(=O)N[C@H](C(=O)N[C@@H](CCN)C(=O)N[C@H]1CCNC(=O)[C@H]([C@@H](C)O)NC(=O)[C@H](CCN)NC(=O)[C@H](CCN)NC(=O)[C@H]([C@@H](C)O)NC(=O)[C@@H](CC(C)C)NC(=O)[C@H](CCN)NC1=O)[C@@H](C)O [Compound 42] (Heptanoyl-[Dab]T[Dab][Dab][Dab][dL]T[Dab][Dab]T; lactam 4-C) | 4 (≈ 3.54 µM) | 4 (≈ 3.54 µM) | 2 (≈ 1.77 µM) | <0.125 | <0.125 | 0.25 (≈ 0.221 µM) | 0.5 (≈ 0.443 µM) | 2 (≈ 1.77 µM) | >32
CCCCCCCCC(=O)N[C@@H](CCN)C(=O)N[C@H](C(=O)N[C@@H](CCN)C(=O)N[C@H]1CCNC(=O)[C@H]([C@@H](C)O)NC(=O)[C@H](CCN)NC(=O)[C@H](CCN)NC(=O)[C@H]([C@@H](C)O)NC(=O)[C@@H](CC(C)C)NC(=O)[C@H](CCN)NC1=O)[C@@H](C)O [Compound 43] (Nonanoyl-[Dab]T[Dab][Dab][Dab][dL]T[Dab][Dab]T; lactam 4-C) | 0.5 (≈ 0.432 µM) | 0.5 (≈ 0.432 µM) | 1 (≈ 0.864 µM) | 0.25 (≈ 0.216 µM) | <0.125 | 0.5 (≈ 0.432 µM) | 0.5 (≈ 0.432 µM) | 1 (≈ 0.864 µM) | 16 (≈ 13.8 µM)
CCCCCCC(=O)N[C@@H](CCN)C(=O)N[C@H](C(=O)N[C@@H](CN)C(=O)N[C@H]1CCNC(=O)[C@H]([C@@H](C)O)NC(=O)[C@H](CCN)NC(=O)[C@H](CCN)NC(=O)[C@H]([C@@H](C)O)NC(=O)[C@@H](CC(C)C)NC(=O)[C@H](CCN)NC1=O)[C@@H](C)O [Compound 44] (Heptanoyl-[Dab]T[Dap][Dab][Dab][dL]T[Dab][Dab]T; lactam 4-C) | 1 (≈ 0.897 µM) | 1 (≈ 0.897 µM) | 1 (≈ 0.897 µM) | 0.25 (≈ 0.224 µM) | <0.125 | <0.125 | 0.5 (≈ 0.448 µM) | 1 (≈ 0.897 µM) | 16 (≈ 14.3 µM)
CCCCCCCC(=O)N[C@@H](CCN)C(=O)N[C@H](C(=O)N[C@@H](CN)C(=O)N[C@H]1CCNC(=O)[C@H]([C@@H](C)O)NC(=O)[C@H](CCN)NC(=O)[C@H](CCN)NC(=O)C(C)(C)NC(=O)[C@@H](CC(C)C)NC(=O)[C@H](CCN)NC1=O)[C@@H](C)O [Compound 45] (Octanoyl-[Dab]T[Dap][Dab][Dab][dL][Aib][Dab][Dab]T; lactam 4-C) | 4 (≈ 3.59 µM) | 8 (≈ 7.19 µM) | 2 (≈ 1.8 µM) | 0.5 (≈ 0.449 µM) | 0.25 (≈ 0.225 µM) | 0.5 (≈ 0.449 µM) | 0.5 (≈ 0.449 µM) | 1 (≈ 0.898 µM) | 16 (≈ 14.4 µM)
CCCCCCCC(=O)N[C@@H](CCN)C(=O)N[C@H](C(=O)N[C@@H](CN)C(=O)N[C@H]1CCNC(=O)[C@H]([C@@H](C)O)NC(=O)[C@H](CCN)NC(=O)[C@H](CCN)NC(=O)[C@H](C(C)(C)C)NC(=O)[C@@H](CC(C)C)NC(=O)[C@H](CCN)NC1=O)[C@@H](C)O [Compound 47] (Octanoyl-[Dab]T[Dap][Dab][Dab][dL][Tle][Dab][Dab]T; lactam 4-C) | 2 (≈ 1.75 µM) | 8 (≈ 7.01 µM) | 1 (≈ 0.876 µM) | 0.5 (≈ 0.438 µM) | 0.5 (≈ 0.438 µM) | 0.25 (≈ 0.219 µM) | 1 (≈ 0.876 µM) | 1 (≈ 0.876 µM) | 8 (≈ 7.01 µM)
CCCCCCCC(=O)N[C@@H](CN)C(=O)N[C@H](C(=O)N[C@@H](CN)C(=O)N[C@H]1CCNC(=O)[C@H]([C@@H](C)O)NC(=O)[C@H](CCN)NC(=O)[C@H](CCN)NC(=O)[C@H]([C@@H](C)O)NC(=O)[C@@H](CC(C)C)NC(=O)[C@H](CCN)NC1=O)[C@@H](C)O [Compound 48] (Octanoyl-[Dap]T[Dap][Dab][Dab][dL]T[Dab][Dab]T; lactam 4-C) | 1 (≈ 0.897 µM) | 1 (≈ 0.897 µM) | 1 (≈ 0.897 µM) | 0.25 (≈ 0.224 µM) | <0.125 | <0.125 | 0.5 (≈ 0.448 µM) | 2 (≈ 1.79 µM) | 4 (≈ 3.59 µM)
CCCCCCCC(=O)N[C@@H](CCN)C(=O)N[C@H](C(=O)N[C@@H](CN)C(=O)N[C@H]1CCNC(=O)[C@H]([C@@H](C)O)NC(=O)[C@H](CCN)NC(=O)[C@H](CCN)NC(=O)[C@H]([C@@H](C)O)NC(=O)[C@@H](CCC)NC(=O)[C@H](CCN)NC1=O)[C@@H](C)O [Compound 49] (Octanoyl-[Dab]T[Dap][Dab][Dab][dNva]T[Dab][Dab]T; lactam 4-C) | 0.5 (≈ 0.448 µM) | 1 (≈ 0.897 µM) | 0.5 (≈ 0.448 µM) | 0.5 (≈ 0.448 µM) | 0.5 (≈ 0.448 µM) | 0.25 (≈ 0.224 µM) | 0.5 (≈ 0.448 µM) | 0.25 (≈ 0.224 µM) | 16 (≈ 14.3 µM)
CCCCCCCC(=O)N[C@@H](CCN)C(=O)N[C@H](C(=O)N[C@@H](CN)C(=O)N[C@H]1CCNC(=O)[C@H]([C@@H](C)O)NC(=O)[C@H](CN)NC(=O)[C@H](CCN)NC(=O)[C@H]([C@@H](C)O)NC(=O)[C@@H](CC(C)C)NC(=O)[C@H](CCN)NC1=O)[C@@H](C)O [Compound 50] (Octanoyl-[Dab]T[Dap][Dab][Dab][dL]T[Dab][Dap]T; lactam 4-C) | 0.5 (≈ 0.448 µM) | 0.5 (≈ 0.448 µM) | 1 (≈ 0.897 µM) | <0.125 | <0.125 | <0.125 | 1 (≈ 0.897 µM) | 0.5 (≈ 0.448 µM) | >32
CCCCCCCC(=O)N[C@@H](CCN)C(=O)N[C@H](C(=O)N[C@@H](CN)C(=O)N[C@H]1CCNC(=O)[C@H]([C@@H](C)O)NC(=O)[C@H](CCN)NC(=O)[C@H](CN)NC(=O)[C@H]([C@@H](C)O)NC(=O)[C@@H](CC(C)C)NC(=O)[C@H](CCN)NC1=O)[C@@H](C)O [Compound 51] (Octanoyl-[Dab]T[Dap][Dab][Dab][dL]T[Dap][Dab]T; lactam 4-C) | 4 (≈ 3.59 µM) | 4 (≈ 3.59 µM) | 8 (≈ 7.17 µM) | 0.25 (≈ 0.224 µM) | 0.25 (≈ 0.224 µM) | 1 (≈ 0.897 µM) | 1 (≈ 0.897 µM) | 0.5 (≈ 0.448 µM) | >32
CCCCCCCC(=O)N[C@@H](CCN)C(=O)N[C@H](C(=O)N[C@@H](CN)C(=O)N[C@H]1CCNC(=O)[C@H]([C@@H](C)O)NC(=O)[C@H](CCN)NC(=O)[C@H](CCN)NC(=O)[C@H]([C@@H](C)O)NC(=O)[C@@H](CC(C)C)NC(=O)[C@H](CN)NC1=O)[C@@H](C)O [Compound 52] (Octanoyl-[Dab]T[Dap][Dab][Dap][dL]T[Dab][Dab]T; lactam 4-C) | 0.5 (≈ 0.448 µM) | 1 (≈ 0.897 µM) | 0.5 (≈ 0.448 µM) | 0.25 (≈ 0.224 µM) | 0.25 (≈ 0.224 µM) | 0.5 (≈ 0.448 µM) | 0.5 (≈ 0.448 µM) | 1 (≈ 0.897 µM) | >32
CCCCCCCC(=O)N[C@@H](CCN)C(=O)N[C@H](C(=O)N[C@@H](CN)C(=O)N[C@H]1CCNC(=O)[C@H]([C@@H](C)O)NC(=O)[C@H](CCCN)NC(=O)[C@H](CCN)NC(=O)[C@H]([C@@H](C)O)NC(=O)[C@@H](CC(C)C)NC(=O)[C@H](CCN)NC1=O)[C@@H](C)O [Compound 53] (Octanoyl-[Dab]T[Dap][Dab][Dab][dL]T[Dab][Orn]T; lactam 4-C) | 8 (≈ 7 µM) | 16 (≈ 14 µM) | 8 (≈ 7 µM) | 0.5 (≈ 0.437 µM) | 2 (≈ 1.75 µM) | 8 (≈ 7 µM) | 8 (≈ 7 µM) | 2 (≈ 1.75 µM) | >32
